What all share (assay): EC50 assay: Ba/F3 stable cell proliferation (CCK-8, 72 h)
What all share (format): cell-based

Assay [1] addresses T1, Ba/F3 stable cells (Homo sapiens, UniProt P00533, DUP767-769, cells depend on it).
T1 construct: EC50 Ba/F3-EGFR V769-D770insASV; other: Ba/F3-EGFR V769-D770insASV cells, 72 h, CCK-8
Conditions: Ba/F3-EGFR V769-D770insASV cells. The method, boiled down:
(§1)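 Ba/F3 stable cells were seeded at 4,000 cells/90 μL/well in 96-well plates and held 2 h at 37° C. in 5% CO2, then given 10 μL of serially titrated compound (0.1% DMSO final). After 72 h at 37° C., CCK-8 reagent was added for 4 hours and absorbance read at 450 nm to derive EC50.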

Assay [2] concerns the target T2, Ba/F3 stable cells (Homo sapiens, UniProt P00533, DUP768-770, cells depend on it).
T2 construct: EC50 Ba/F3-EGFR D770-N771insSVD; other: Ba/F3-EGFR D770-N771insSVD cells, 72 h, CCK-8
The settings on record: Ba/F3-EGFR D770-N771insSVD cells. The method, boiled down: as §1

Assay [3] has as its target T3, Ba/F3 stable cells (Homo sapiens, UniProt P00533, DUP771-773, cells depend on it).
T3 construct: EC50 Ba/F3-EGFR H773-V774insNPH; other: Ba/F3-EGFR H773-V774insNPH cells, 72 h, CCK-8
Conditions: Ba/F3-EGFR H773-V774insNPH cells. The method, boiled down:
as §1

Assay [4] concerns the target T4, Ba/F3 stable cells (Homo sapiens, UniProt P00533, INS763FQEA, cells depend on it).
T4 construct: EC50 Ba/F3-EGFR A763-Y764insFQEA; other: Ba/F3-EGFR A763-Y764insFQEA cells, 72 h, CCK-8
The settings on record: Ba/F3-EGFR A763-Y764insFQEA cells. The method, boiled down: as §1

The target in assay [5] is T5, Ba/F3 stable cells (Homo sapiens, UniProt P00533, T790M/L858R, cells depend on it).
T5 construct: EC50 Ba/F3-EGFR L858R-T790M; other: Ba/F3-EGFR L858R-T790M cells, 72 h, CCK-8
T5 sequence (P00533 whole entry T790M/L858R): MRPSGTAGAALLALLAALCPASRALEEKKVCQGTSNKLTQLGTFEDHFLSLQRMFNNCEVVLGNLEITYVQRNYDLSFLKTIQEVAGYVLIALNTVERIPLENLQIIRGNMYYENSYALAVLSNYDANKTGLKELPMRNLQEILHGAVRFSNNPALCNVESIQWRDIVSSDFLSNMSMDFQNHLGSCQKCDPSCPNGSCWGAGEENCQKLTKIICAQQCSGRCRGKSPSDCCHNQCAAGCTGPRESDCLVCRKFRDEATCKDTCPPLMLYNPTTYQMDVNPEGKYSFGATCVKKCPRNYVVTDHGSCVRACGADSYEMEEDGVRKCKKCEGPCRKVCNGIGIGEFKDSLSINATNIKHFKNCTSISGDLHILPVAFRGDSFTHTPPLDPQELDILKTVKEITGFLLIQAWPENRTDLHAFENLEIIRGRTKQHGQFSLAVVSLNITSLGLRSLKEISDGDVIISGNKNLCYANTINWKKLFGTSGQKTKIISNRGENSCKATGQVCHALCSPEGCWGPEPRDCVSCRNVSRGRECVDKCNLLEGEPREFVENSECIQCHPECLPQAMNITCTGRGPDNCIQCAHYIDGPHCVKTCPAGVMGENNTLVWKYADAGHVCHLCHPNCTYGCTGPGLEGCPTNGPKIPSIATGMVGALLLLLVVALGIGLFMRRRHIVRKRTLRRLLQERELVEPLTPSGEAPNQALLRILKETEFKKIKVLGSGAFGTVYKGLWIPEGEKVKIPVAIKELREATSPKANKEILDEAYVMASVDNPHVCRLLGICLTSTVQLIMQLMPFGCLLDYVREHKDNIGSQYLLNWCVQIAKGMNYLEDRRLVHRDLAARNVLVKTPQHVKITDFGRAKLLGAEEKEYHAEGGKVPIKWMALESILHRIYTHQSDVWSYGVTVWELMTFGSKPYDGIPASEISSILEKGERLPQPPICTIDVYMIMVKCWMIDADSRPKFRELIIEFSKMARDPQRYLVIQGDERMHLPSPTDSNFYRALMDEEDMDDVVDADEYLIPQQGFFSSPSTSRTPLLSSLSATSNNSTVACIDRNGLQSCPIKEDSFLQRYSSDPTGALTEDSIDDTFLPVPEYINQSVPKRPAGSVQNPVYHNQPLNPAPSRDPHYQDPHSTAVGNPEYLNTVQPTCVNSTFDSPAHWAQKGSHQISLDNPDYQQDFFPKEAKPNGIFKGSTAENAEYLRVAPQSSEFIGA
The settings on record: Ba/F3-EGFR L858R-T790M cells. The method, boiled down: as §1

Assay [6] addresses T6, Ba/F3 stable cells (Homo sapiens, UniProt P04626, DUP772-775, cells depend on it).
T6 construct: EC50 Ba/F3-HER2 A775-G776insYVMA; other: Ba/F3-HER2 A775-G776insYVMA cells, 72 h, CCK-8
Conditions: Ba/F3-HER2 A775-G776insYVMA cells. Summed up: as §1

T3 sequence (P00533 with tags, fused parts or gaps DUP771-773): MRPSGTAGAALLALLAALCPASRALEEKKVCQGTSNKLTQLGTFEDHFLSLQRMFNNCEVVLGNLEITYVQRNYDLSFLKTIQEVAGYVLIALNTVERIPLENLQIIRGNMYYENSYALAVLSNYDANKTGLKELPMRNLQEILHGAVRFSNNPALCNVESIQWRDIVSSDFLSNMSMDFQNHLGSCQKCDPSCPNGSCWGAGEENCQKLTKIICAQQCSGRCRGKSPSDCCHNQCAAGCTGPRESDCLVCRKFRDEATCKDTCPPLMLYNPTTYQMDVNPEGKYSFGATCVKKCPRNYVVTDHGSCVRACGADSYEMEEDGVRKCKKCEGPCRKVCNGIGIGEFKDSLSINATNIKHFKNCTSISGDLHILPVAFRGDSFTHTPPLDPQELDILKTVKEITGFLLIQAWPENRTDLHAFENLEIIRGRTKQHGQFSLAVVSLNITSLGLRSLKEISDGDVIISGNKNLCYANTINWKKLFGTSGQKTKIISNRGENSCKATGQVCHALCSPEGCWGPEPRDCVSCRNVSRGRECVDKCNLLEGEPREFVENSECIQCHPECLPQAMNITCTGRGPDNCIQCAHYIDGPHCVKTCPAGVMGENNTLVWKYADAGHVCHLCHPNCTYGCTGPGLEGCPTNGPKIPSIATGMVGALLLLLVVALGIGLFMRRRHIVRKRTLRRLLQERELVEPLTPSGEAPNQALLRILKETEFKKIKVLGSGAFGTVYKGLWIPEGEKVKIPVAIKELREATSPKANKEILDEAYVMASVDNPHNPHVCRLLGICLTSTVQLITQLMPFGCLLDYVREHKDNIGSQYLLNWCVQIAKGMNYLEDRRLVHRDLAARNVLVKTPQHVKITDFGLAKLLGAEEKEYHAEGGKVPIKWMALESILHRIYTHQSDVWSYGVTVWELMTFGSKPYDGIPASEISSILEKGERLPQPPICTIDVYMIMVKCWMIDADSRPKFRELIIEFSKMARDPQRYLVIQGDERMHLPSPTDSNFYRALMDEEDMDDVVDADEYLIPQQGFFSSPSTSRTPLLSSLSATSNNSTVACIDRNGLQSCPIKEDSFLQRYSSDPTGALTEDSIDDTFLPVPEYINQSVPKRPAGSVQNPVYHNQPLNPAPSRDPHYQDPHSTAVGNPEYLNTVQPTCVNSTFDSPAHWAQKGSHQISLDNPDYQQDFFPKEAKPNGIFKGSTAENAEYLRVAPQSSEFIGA
T2 sequence (P00533 with tags, fused parts or gaps DUP768-770): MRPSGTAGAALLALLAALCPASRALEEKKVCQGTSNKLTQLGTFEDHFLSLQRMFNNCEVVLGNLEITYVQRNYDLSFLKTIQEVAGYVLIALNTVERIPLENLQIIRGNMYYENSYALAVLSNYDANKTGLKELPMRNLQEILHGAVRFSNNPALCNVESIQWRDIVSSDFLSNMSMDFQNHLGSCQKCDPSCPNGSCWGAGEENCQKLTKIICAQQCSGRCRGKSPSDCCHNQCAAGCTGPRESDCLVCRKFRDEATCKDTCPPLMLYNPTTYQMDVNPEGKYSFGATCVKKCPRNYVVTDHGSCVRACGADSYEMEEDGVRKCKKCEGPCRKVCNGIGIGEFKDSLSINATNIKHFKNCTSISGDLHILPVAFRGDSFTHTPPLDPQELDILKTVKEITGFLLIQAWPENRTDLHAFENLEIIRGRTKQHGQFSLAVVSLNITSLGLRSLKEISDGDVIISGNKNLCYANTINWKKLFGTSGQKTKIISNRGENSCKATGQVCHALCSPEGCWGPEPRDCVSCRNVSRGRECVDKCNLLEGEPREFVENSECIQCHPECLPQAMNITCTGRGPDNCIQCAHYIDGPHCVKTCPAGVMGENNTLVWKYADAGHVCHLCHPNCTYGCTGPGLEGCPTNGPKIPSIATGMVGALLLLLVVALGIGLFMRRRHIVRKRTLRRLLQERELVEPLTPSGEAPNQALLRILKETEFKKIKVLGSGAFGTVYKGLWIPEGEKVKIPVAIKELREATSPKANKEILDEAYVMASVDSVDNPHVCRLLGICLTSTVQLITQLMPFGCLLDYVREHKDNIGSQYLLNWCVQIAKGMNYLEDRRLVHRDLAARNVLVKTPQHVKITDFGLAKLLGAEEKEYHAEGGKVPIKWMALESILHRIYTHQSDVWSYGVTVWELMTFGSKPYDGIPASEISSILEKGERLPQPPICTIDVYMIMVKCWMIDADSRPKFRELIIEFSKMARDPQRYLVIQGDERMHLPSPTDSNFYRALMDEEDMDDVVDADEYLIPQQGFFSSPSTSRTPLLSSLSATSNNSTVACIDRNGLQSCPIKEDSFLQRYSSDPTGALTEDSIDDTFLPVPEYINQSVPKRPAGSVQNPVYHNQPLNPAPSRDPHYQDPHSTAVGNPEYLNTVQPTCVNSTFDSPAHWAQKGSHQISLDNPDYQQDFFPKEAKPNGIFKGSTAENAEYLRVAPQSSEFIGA
T1 sequence (P00533 with tags, fused parts or gaps DUP767-769): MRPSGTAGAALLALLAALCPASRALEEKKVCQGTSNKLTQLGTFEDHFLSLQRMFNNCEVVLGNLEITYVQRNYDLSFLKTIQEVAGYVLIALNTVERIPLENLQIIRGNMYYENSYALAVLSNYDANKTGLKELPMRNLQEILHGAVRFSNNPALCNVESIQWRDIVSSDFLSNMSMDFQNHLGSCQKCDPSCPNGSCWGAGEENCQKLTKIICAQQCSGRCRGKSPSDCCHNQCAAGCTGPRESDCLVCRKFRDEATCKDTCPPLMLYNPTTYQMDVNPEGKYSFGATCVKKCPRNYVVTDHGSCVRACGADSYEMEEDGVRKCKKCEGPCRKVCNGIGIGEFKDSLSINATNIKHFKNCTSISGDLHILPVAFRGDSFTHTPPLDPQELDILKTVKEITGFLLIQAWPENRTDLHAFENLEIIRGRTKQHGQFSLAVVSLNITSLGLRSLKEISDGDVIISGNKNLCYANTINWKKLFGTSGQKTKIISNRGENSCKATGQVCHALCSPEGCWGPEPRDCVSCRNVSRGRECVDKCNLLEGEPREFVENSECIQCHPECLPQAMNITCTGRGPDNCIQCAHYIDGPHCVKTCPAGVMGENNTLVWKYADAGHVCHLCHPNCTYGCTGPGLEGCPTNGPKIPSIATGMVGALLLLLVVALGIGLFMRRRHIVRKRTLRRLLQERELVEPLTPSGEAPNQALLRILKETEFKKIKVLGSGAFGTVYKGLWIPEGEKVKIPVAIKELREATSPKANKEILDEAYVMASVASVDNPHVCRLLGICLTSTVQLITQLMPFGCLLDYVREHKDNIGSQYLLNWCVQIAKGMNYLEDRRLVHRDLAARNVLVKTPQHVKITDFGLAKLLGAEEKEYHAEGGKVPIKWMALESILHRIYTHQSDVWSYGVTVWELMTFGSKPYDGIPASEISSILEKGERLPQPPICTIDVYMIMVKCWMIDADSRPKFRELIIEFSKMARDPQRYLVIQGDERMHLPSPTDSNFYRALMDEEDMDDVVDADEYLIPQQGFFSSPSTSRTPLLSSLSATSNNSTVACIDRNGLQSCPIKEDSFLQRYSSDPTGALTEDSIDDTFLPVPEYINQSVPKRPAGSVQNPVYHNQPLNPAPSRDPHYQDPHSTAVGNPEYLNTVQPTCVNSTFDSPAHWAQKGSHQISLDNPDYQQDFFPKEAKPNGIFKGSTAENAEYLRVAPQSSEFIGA

`C=CC(=O)N1C2CCC1CC(Oc1cc3c(Nc4cccc5c4CCC5)ncnc3cc1OC)C2` (stereo not drawn) [Compound 183, 1-(3-((4-((2,3-dihydro-1H-inden-4-yl)amino)-7-methoxyquinazolin-6-yl)oxy)-8-azabicyclo[3.2.1]octan-8-yl)prop-2-en-1-one]: the EC50 – broadly, the concentration needed to bring the measured effect to its halfway point – in assay [1] is not above 0.2 µM; in assay [2], 0.2 to 1 µM; in assay [3], not above 0.2 µM; in assay [4] it was not above 0.2 µM; in assay [5], not above 0.2 µM; in assay [6], 0.2 to 1 µM.
`C=CC(=O)N1CCCC(c2ccc3ncnc(Nc4ccc(Cl)c(Cl)c4F)c3c2)C1` (stereo not drawn) [Compound 184, 1-(3-(4-((3,4-dichloro-2-fluorophenyl)amino)quinazolin-6-yl)piperidin-1-yl)prop-2-en-1-one]: the EC50 in assay [1] is not above 0.2 µM; in assay [2] it was 0.2 to 1 µM; in assay [3] it was 0.2 to 1 µM; in assay [4], not above 0.2 µM; in assay [5], more than 1 µM; in assay [6], not above 0.2 µM.
With `C=CC(=O)N1CCCC(c2cc3c(Nc4ccc(Cl)c(Cl)c4F)ncnc3cc2OC)C1` (stereo not drawn) [Compound 185, 1-(3-(4-((3,4-dichloro-2-fluorophenyl)amino)-7-methoxyquinazolin-6-yl)piperidin-1-yl)prop-2-en-1-one], the EC50 in assay [1] was not above 0.2 µM; in assay [2] it was 0.2 to 1 µM; in assay [3] it was not above 0.2 µM; in assay [4], not above 0.2 µM; in assay [5], not above 0.2 µM; in assay [6], 0.2 to 1 µM.
Consider `C=CC(=O)N1CCC=C(c2cc3c(Nc4ccc(Cl)c(Cl)c4F)ncnc3cc2OC)C1` [Compound 186, 1-(5-(4-((3,4-dichloro-2-fluorophenyl)amino)-7-methoxyquinazolin-6-yl)-3,6-dihydropyridin-1(2H)-yl)prop-2-en-1-one], for which the EC50 was not above 0.2 µM in assay [1]; 0.2 to 1 µM in assay [2]; not above 0.2 µM in assay [3]; not above 0.2 µM in assay [4]; more than 1 µM in assay [5]; 0.2 to 1 µM in assay [6].
Consider `C=CC(=O)N1CCC=C(c2ccc3ncnc(Nc4ccc(Cl)c(Cl)c4F)c3c2)C1` [Compound 187, 1-(5-(4-((3,4-dichloro-2-fluorophenyl)amino)quinazolin-6-yl)-3,6-dihydropyridin-1(2H)-yl)prop-2-en-1-one], for which the EC50 in assay [1] is not above 0.2 µM; in assay [2], 0.2 to 1 µM; in assay [3], 0.2 to 1 µM; in assay [4], not above 0.2 µM; in assay [5], 0.2 to 1 µM; in assay [6] it was 0.2 to 1 µM.
As for `C=CS(=O)(=O)N1CCCC(c2ccc3ncnc(Nc4ccc(Cl)c(Cl)c4F)c3c2)C1` (stereo not drawn) [Compound 188, N-(3,4-dichloro-2-fluorophenyl)-6-(1-(vinylsulfonyl)piperidin-3-yl)quinazolin-4-amine], the EC50 was not above 0.2 µM in assay [1]; 0.2 to 1 µM in assay [2]; not above 0.2 µM in assay [3]; not above 0.2 µM in assay [4]; not above 0.2 µM in assay [5]; 0.2 to 1 µM in assay [6].
`C=CS(=O)(=O)N1CCC=C(c2ccc3ncnc(Nc4ccc(Cl)c(Cl)c4F)c3c2)C1` [Compound 190, N-(3,4-dichloro-2-fluorophenyl)-6-(1-(vinylsulfonyl)-1,2,5,6-tetrahydropyridin-3-yl)quinazolin-4-amine]: the EC50 in assay [1] was not above 0.2 µM; in assay [2], not above 0.2 µM; in assay [3], not above 0.2 µM; in assay [4], not above 0.2 µM; in assay [5] it was not above 0.2 µM; in assay [6], 0.2 to 1 µM.
`C=CS(=O)(=O)NC1CC(Oc2cc3c(Nc4ccc(Cl)c(Cl)c4F)ncnc3cc2OC)C1` (stereo not drawn) [Compound 191, N-(3-((4-((3,4-dichloro-2-fluorophenyl)amino)-7-methoxyquinazolin-6-yl)oxy)cyclobutyl)ethenesulfonamide]: the EC50 in assay [1] is not above 0.2 µM; in assay [2], not above 0.2 µM; in assay [3] it was not above 0.2 µM; in assay [4] it was not above 0.2 µM; in assay [5] it was not above 0.2 µM; in assay [6], more than 1 µM.

The record behind these values is patent US20250243171A1, “QUINAZOLINE COMPOUNDS FOR TREATMENT OF DISEASE” (Arthrosi Therapeutics, Inc., priority 2021, published 2025).
